For assay [1], the system named is H69AR cells. Description: CellTiter-Glo cell viability assay (cytotoxicity), H69AR. Format: cell-based. As to conditions: Homo sapiens, 48 h, MRP1-expressing, mean ± SEM. As to the method: The human lung adenocarcinoma cell line A549 was cultured in DMEM medium supplemented with 10% fetal bovine serum (FBS), 100 U/mL penicillin and 100 μg/mL streptomycin. P-gp-expressing human colon adenocarcinoma cells HCT-15 were cultured in RPMI 1640 medium supplemented with 10% FBS, 100 U/mL penicillin and 100 μg/mL streptomycin. BCRP-expressing MCF-7/MX human breast adenocarcinoma cells were cultured in DMEM medium supplemented with 10% FBS, 100 U/mL penicillin and 100 μg/mL streptomycin. MRP1-expressing H69AR human small cell lung cancer cells were cultured in RPMI 1640 medium (ATCC modification) supplemented with 20% FBS, 100 U/mL penicillin and 100 μg/mL streptomycin. All cancer cell lines employed have been systematically characterized regarding their respective ABC transporter expression profile ([Sachs et al., 2019]).
(§1) Cytotoxic activity of test compounds was analyzed after 48 h using the CellTiter-Glo Luminescent Cell Viability Assay published previously ([Weber et al., 2017]) in 384-well plates with the following cell densities: A549, MCF-7/MX: 2 × 10^3 cells/well; HCT-15: 3 × 10^3 cells/well; H69AR: 5 × 10^3 cells/well. Pipetting was conducted with the CyBi-Well 96-channel simultaneous pipettor (Analytik Jena AG, Jena, Germany). For generation of dose-response curves and calculation of IC50 values, the four-parameter logistic model was applied.
Background: Cellular ATP, detected with luciferase, serves as a proxy for viable cell number.

Assay [2] addresses T1, Pdr5 (Saccharomyces cerevisiae, UniProt P33302).
T1 construct: effect on (A) the transport activity of Pdr5 WT and (B) their effect on the ATPase activity; made in house; host or cells: S. cerevisiae YRE1001 (pdr1-3 background), isolated plasma membranes
The experiment in a line: Pdr5 transport assay (R6G) in plasma membrane preparations. Format: biochemical. More on the design: R6G transport activity of Pdr5 WT inhibited to (initial screen): dose or concentration left out as unconfirmed. As to conditions: for R6G transport activity of Pdr5 WT inhibited to (initial screen): relative to Pdr5 WT without compound. The procedure: (§2) Saccharomyces cerevisiae cells expressing Pdr5 WT or the E1036Q (EQ) mutant were cultured to an OD600 of 1.5 in YPD-media at 25°C. The nitrogen source was replenished by addition of a 10th volume of 5x YP (50 g/l yeast extract, 100 g/l peptone). The cells were grown to an OD of 3.5 and harvested (5000 ×g at 4°C for 15 min). The isolation of Pdr5 containing PMs was performed as described ([Kolaczkowski et al., 1996]; [Ernst et al., 2008]).
Active transport of R6G was measured according to the protocol developed by [Kolaczkowski et al. (1996)], using a Tecan Infinite 200 pro reader (Tecan Group AG, Männedorf, Switzerland). 6 μg of the isolated PM containing Pdr5 were resuspended in 200 μl of the transport buffer (50 mM HEPES, pH 7.0, 5 mM MgCl2, 10 mM NaN3, and 150 nM R6G) and incubated in a black 96-well plate at 30°C. 5 μl of the test compound were added at the indicated concentrations. Active transport was initiated by the addition of 10 μl 200 mM ATP and fluorescence intensity was recorded in 15 s-intervals for 20 min (excitation wavelength at 524 nm, emission wavelength at 558 nm, number of flashes 30, integration time 2000 μs). IC50 determination was performed with a serial dilution of the test compounds.

Assay [3] deals with T1, Pdr5. Description: Pdr5 ATPase assay (oligomycin-sensitive) in plasma membrane preparations. Format: biochemical. Particulars: highest concentrations (10 mM), in comparison to Pdr5 WT in the absence of any compound. As to the method:
as §2
Oligomycin (OM)-sensitive ATPase activity was measured from 0.8 μg PM containing Pdr5 incubated with 2 mM ATP, 5 mM MgCl2 in 270 mM TRIS-glycine buffer (pH 9.5) and 2.5 μl of the test compounds or DMSO as a control in a total volume of 100 μl. To reduce the background activities, 0.2 mM ammonium molybdate, 10 mM NaN3 and 50 mM KNO3, respectively, were added ([Dufour et al., 1988]; [Goffeau and Dufour, 1988]). In a second assay, OM (20 μg/ml) was added to an otherwise identical setup. After incubation at 30°C for 20 min, the reaction was stopped by adding 25 μl of the reaction to 175 μl 40 mM H2SO4. The amount of released inorganic phosphate was determined by a colometric assay in 96-well plates ([Goffeau and Dufour, 1988]; [Decottignies et al., 1994]; [Wada et al., 2002]). The difference of both assays ( ± OM) corresponds to the specific ATPase activity of Pdr5 ([Ernst et al., 2008]).

Assay [4] has as its system P-gp expressing HCT-15 cells. The experiment in a line: Sensitization of HCT-15 cells to doxorubicin (co-treatment, cell viability). The assay is classed as cell-based, human. As to conditions: for Fold change of doxorubicin IC50: IC50 (drug alone)/IC50 (drug with modulator). The procedure:
as §1
(§3) The ability of identified inhibitors of P-gp and BCRP to sensitize HCT-15 or MCF-7/MX cells to chemotherapy was analyzed by co-treatment with test compounds and doxorubicin or mitoxantrone, respectively. Cells were incubated with a serial dilution of the chemotherapeutic drug alone or in combination with fixed concentrations of the test compounds or positive controls (2.5 μM PSC833 and 1 μM Ko143, respectively). Fold change of drug IC50 was calculated with the formula IC50 (drug alone)/IC50 (drug with modulator).

The test system of assay [5] is BCRP-expressing MCF-7/MX cells. The experiment in a line: Sensitization of MCF-7/MX cells to mitoxantrone (co-treatment, cell viability). As to conditions: for Fold change of mitoxantrone IC50: IC50 (drug alone)/IC50 (drug with modulator). Format: cell-based, human. The procedure:
as §1, §3

Assay [6] has as its system S. cerevisiae strain expressing Pdr5 EQ. Description: Liquid drug assay, yeast strain expressing Pdr5 EQ mutant. The assay is classed as cell-based, Saccharomyces cerevisiae. As to conditions: serial dilutions, 48 h, 30°C, OD600. As to the method:
The following S. cerevisiae yeast strain was used: YRE1001 (MATa ura3-52 trp1-1 leu2-3,112 his3-11,15 ade2-1 pdr1-3 pdr5pdr5promΔ::TRP1). S. cerevisiae was cultured in YPD medium (10 g/L yeast extract, 20 g/L peptone, 2% glucose) at 30°C and 200 rpm. The yeast strain has been described previously ([Ernst et al., 2008]; [Gupta et al., 2014]). Based on these studies it is evident that Pdr5 localizes to the PM and is present in approximately 10% of the overall membrane protein content of the PM.
The liquid drug assay was carried out in sterile 96-well plates. 50 μl of yeast cell culture at an OD600 of 0.15 were mixed with 193.75 μl YPD and 6.25 μl of the test compound or DMSO as a negative control. To distinguish between cytotoxic compounds and those which inhibit Pdr5 WT specifically, the Pdr5 substrate ketoconazole was added only to cultures expressing wild-type Pdr5 in a final concentration of 1 μg/ml. At this concentration, inhibition of Pdr5 would result in ketoconazole-mediated cell death. After 48 h at 30°C the growth was measured with an ELISA plate reader (BioRad, Hercules, CA, United States) at 595 nm.

“Also recorded” adds a separate entry of the source.

T1 sequence (P33302 whole entry): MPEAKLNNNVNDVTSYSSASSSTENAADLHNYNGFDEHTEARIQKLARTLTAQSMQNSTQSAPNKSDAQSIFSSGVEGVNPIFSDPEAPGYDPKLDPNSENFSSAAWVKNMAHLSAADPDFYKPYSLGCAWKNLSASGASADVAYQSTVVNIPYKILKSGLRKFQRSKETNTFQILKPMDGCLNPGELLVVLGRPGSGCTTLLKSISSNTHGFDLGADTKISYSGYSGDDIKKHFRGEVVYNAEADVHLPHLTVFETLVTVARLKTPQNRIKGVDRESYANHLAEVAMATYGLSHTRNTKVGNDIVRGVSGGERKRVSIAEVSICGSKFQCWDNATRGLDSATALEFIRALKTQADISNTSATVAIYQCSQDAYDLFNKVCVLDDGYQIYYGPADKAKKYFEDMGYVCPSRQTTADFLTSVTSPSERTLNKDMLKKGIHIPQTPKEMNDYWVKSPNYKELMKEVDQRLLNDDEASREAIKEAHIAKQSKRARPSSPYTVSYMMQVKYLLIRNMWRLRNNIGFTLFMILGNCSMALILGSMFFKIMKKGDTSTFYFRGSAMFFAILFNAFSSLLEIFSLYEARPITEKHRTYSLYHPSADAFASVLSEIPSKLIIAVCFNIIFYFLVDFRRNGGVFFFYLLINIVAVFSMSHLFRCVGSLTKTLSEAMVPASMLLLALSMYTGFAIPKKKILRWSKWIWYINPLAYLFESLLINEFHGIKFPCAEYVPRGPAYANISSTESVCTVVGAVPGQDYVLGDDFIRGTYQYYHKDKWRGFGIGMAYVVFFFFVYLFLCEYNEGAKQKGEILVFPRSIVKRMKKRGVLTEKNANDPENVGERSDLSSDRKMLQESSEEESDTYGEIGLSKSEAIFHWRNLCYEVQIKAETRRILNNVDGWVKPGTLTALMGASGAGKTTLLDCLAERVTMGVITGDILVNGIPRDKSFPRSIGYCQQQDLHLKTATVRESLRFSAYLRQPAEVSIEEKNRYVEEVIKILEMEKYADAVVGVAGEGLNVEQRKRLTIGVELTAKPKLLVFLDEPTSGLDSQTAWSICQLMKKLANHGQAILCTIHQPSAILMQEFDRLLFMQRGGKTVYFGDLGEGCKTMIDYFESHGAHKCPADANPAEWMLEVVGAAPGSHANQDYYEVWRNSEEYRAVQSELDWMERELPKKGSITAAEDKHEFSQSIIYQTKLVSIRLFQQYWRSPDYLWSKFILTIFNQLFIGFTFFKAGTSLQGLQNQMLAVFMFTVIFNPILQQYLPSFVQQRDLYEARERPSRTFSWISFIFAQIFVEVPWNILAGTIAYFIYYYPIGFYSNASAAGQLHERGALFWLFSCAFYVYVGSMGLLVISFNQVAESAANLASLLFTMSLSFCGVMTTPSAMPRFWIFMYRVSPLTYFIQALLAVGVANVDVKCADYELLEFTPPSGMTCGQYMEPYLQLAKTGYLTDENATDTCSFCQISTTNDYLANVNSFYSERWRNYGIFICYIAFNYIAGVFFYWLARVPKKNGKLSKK

A word on the IC50: it is the concentration that gives 50% inhibition. Molecule `COc1cc(O)c2c(c1)C[C@H](C)OC2=O` [Angelicoin B (4), angelicoin B] returned an IC50 in assay [1] of over 100 µM. The “R6G transport activity of Pdr5 WT inhibited to (initial screen)” value in assay [2] (listed as 4) is given as “no effect”; in assay [2] (listed as angelicoin B (4)) it was “did not interfere with Pdr5-mediated R6G transport”. Besides, the results for the “ATPase activity of Pdr5 WT inhibited to (initial screen)” value in assay [3] (listed as 4), in assay [3] (listed as angelicoin (4)) and in assay [3] (listed as angelicoin B (4)) were “nearly no effect”, “no effect” and “no inhibitory effect”, respectively.
In turn, `COc1cc(O)c2c(c1)CCOC2=O` [Compound 14] had an IC50 in assay [1] of over 100 µM. For the same molecule, the “Sensitization of HCT-15 cells to doxorubicin (in words)” value in assay [4] is listed as “did not sensitize the cells to doxorubicin”. Besides, the “Fold change of doxorubicin IC50” value in assay [4] (+20 μM of the modulator) was 0.89; in assay [4] (+50 μM of the modulator), 0.80. For the same molecule, the “Sensitization of MCF-7/MX cells to mitoxantrone (in words)” value in assay [5] is listed as “did not have a significant influence”. Besides, the figures for the “Fold change of mitoxantrone IC50” value in assay [5] (+10 μM of the modulator), in assay [5] (+20 μM of the modulator) and in assay [5] (+50 μM of the modulator) were 1.01, 0.77 and 0.78, respectively. Further, in assay [2], the “R6G transport activity of Pdr5 WT inhibited to (initial screen)” value is on record as “did not interfere with Pdr5-mediated R6G transport; also recorded: no effect”. Further, the “ATPase activity of Pdr5 WT inhibited to (initial screen)” value in assay [3] was “nearly no effect; also recorded: no inhibitory effect”.
For the molecule `CCCCCC1Cc2cc(OC)cc(O)c2C(=O)O1` (stereo not shown) [Compound 16], the IC50 turned out to be 88.5 ± 4.6 µM in assay [1] and 15.1 ± 2.1 µM in assay [2]. The “Fold change of doxorubicin IC50” value is given as 0.98 in assay [4] (+20 μM of the modulator) and 3.7 in assay [4] (+50 μM of the modulator). The “Fold change of mitoxantrone IC50” value in assay [5] (+10 μM of the modulator) worked out at 0.93; in assay [5] (+20 μM of the modulator), 3.70; in assay [5] (+50 μM of the modulator) it was 5.6. Moreover, the “R6G transport activity of Pdr5 WT inhibited to (initial screen)” value in assay [2] is “inhibit the transport of R6G completely; also recorded: inhibit the transport activity of Pdr5 WT completely”.
Take `CCCCCC1Cc2cc(OC)cc(OC)c2C(=O)O1` (stereo not shown) [Compound 16a]: the IC50 in assay [1] is over 100 µM. In assay [6], the “Effect on growth of yeast strain expressing Pdr5 EQ mutant” value was “inhibited the growth of the mutant strain slightly at the highest tested concentration”. In assay [2], the IC50 is 14.6 ± 3.9 µM and the “R6G transport activity of Pdr5 WT inhibited to (initial screen)” value is on record as “inhibit the transport of R6G completely; also recorded: inhibit the transport activity of Pdr5 WT completely”.

The values are drawn from paper PMC6476959, “Novel 3,4-Dihydroisocoumarins Inhibit Human P-gp and BCRP in Multidrug Resistant Tumors and Demonstrate Substrate Inhibition of Yeast Pdr5” (Frontiers in Pharmacology, 2019).
